Measurements as given in patent publication EP4810040A2, “INHIBITORS OF APOL1 AND METHODS OF USING SAME” (priority 2020, dated 2022).

Biological target: T1, APOL1 G1 (Homo sapiens, UniProt O14791, I384M/S342G)
T1 sequence (O14791 28-398 S342G/I384M): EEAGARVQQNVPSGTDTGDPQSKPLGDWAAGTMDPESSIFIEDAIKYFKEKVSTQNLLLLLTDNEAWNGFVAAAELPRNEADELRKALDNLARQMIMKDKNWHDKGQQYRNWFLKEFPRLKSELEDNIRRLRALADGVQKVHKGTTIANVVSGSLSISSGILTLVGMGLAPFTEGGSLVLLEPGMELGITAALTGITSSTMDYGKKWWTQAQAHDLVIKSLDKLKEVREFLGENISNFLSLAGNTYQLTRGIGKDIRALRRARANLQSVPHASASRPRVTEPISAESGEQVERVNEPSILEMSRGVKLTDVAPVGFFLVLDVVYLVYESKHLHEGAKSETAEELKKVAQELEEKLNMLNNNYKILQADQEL
Experiment: MultiTox-Fluor Multiplex Cytotoxicity Assay, tet-inducible APOL1 G1 T-REx-HEK293 cells
Format: cell-based
Parameters: expressed in transfected cells; host or cells: T-REx HEK293, clone G1 DC3.25 (pAAVS1-Puro-APOL1 G1)
Conditions: for IC90: HEK293, Multi-Tox Assay, APOL1 variant (G0/G1/G2) of the HEK293 cells not given, read-out: Multi-Tox Assay IC90; for Emax / Multi-Tox Assay Max Activity (%): Multi-Tox Assay, APOL1 variant not given; for Emax: read-out: Multi-Tox Assay Max Activity (%)
Method in brief: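 Over 24 h at 37 °C, compounds (10-point 3-fold series from 10 µM, duplicate) were co-incubated with 50 ng/mL tetracycline inducing APOL1 G1 in T-REx-HEK293 cells. Viability/cytotoxicity measured by MultiTox-Fluor as dead-to-live fluorescence ratio, expressed as percent of control between uninduced and induced wells and fitted.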

SMILES | IC90 [µM] | Emax [%] | Multi-Tox Assay Max Activity (%)
C#C[C@@H]1C[C@]2(C[C@H](C)N1)OCCc1cc(Cl)sc12 [Compound 221, (2S,4S,6S)-2'-chloro-2-ethynyl-6-methyl-4',5'-dihydrospiro[piperidine-4,7'-thieno[2,3-c]pyran]] | 0.05 to 0.5 | 99 | 
C#C[C@@H]1C[C@]2(C[C@H](C)N1)OC[C@@H](O)c1cc(Cl)sc12 [Compound 222, (2'S,4S,6'S,7S)-2-chloro-2'-ethynyl-6'-methyl-spiro[4,5-dihydrothieno[2,3-c]pyran-7,4'-piperidine]-4-ol] | 0.05 to 0.5 | 100 | 
C#C[C@@H]1C[C@]2(C[C@H](C)N1)OCC(F)(F)c1cc(Cl)sc12 [Compound 223, (2'S,6'S,7S)-2-chloro-2'-ethynyl-4,4-difluoro-6'-methyl-spiro[5H-thieno[2,3-c]pyran-7,4'-piperidine]] | > 0.5 | 93 | 
C[C@H]1C[C@@]2(C[C@@H](c3cn(Cc4ccc(CO)cc4)nn3)N1)OC[C@@H](O)c1cc(Cl)sc12 [Compound 224, (2'S,4S,6'S,7S)-2-chloro-2'-[1-[[4-(hydroxymethyl)phenyl]methyl]triazol-4-yl]-6'-methyl-spiro[4,5-dihydrothieno[2,3-c]pyran-7,4'-piperidine]-4-ol] | 0.05 to 0.5 | 99 | 
C[C@H]1C[C@@]2(C[C@@H](c3cn(Cc4ccc(CO)cc4)nn3)N1)OCC(F)(F)c1cc(Cl)sc12 [Compound 225, (4-((4-((2S,4S,6S)-2'-chloro-4',4'-difluoro-2-methyl-4',5'-dihydrospiro[piperidine-4,7'-thieno[2,3-c]pyran]-6-yl)-1H-1,2,3-triazol-1-yl)methyl)phenyl)methanol] | 0.05 to 0.5 |  | 97.0
COCC(O)Cn1cc([C@@H]2C[C@]3(C[C@H](C)N2)OC[C@@H](O)c2cc(Cl)sc23)nn1 (stereo partly shown) [Compound 226] | 0.05 to 0.5 |  | 100.0
C[C@H]1C[C@@]2(C[C@@H](c3cn(CC4CCCCO4)nn3)N1)OC[C@@H](O)c1cc(Cl)sc12 (stereo partly shown) [Compound 227] | 0.05 to 0.5 |  | 100.0
C[C@H]1C[C@@]2(C[C@@H](c3cn(CCCS(C)(=O)=O)nn3)N1)OC[C@@H](O)c1cc(Cl)sc12 [Compound 228] | 0.05 to 0.5 |  | 100.0
COCCOCCn1cc([C@@H]2C[C@]3(C[C@H](C)N2)OC[C@@H](O)c2cc(Cl)sc23)nn1 [Compound 229] | 0.05 to 0.5 |  | 98.0
CC(C)C(=O)NCCn1cc([C@@H]2C[C@]3(C[C@H](C)N2)OC[C@@H](O)c2cc(Cl)sc23)nn1 [Compound 230] | > 0.5 |  | 98.0
C[C@H]1C[C@@]2(C[C@@H](c3cn(Cc4ccccc4S(C)(=O)=O)nn3)N1)OC[C@@H](O)c1cc(Cl)sc12 [Compound 231] | 0.05 to 0.5 |  | 95.0
C[C@H]1C[C@@]2(C[C@@H](c3cn(Cc4n[nH]c5ccccc45)nn3)N1)OC[C@@H](O)c1cc(Cl)sc12 [Compound 232] | 0.05 to 0.5 |  | 100.0
C[C@H]1C[C@@]2(C[C@@H](c3cn(CC4(O)CC4)nn3)N1)OC[C@@H](O)c1cc(Cl)sc12 [Compound 233] | 0.05 to 0.5 |  | 100.0
C[C@H]1C[C@@]2(C[C@@H](c3cn(Cc4ncnc5[nH]ccc45)nn3)N1)OC[C@@H](O)c1cc(Cl)sc12 [Compound 234] | 0.05 to 0.5 |  | 100.0
Cc1cc(C)nc(CCn2cc([C@@H]3C[C@]4(C[C@H](C)N3)OC[C@@H](O)c3cc(Cl)sc34)nn2)c1 [Compound 235] | 0.05 to 0.5 |  | 100.0
C[C@H]1C[C@@]2(C[C@@H](c3cn(Cc4ccc(C#N)nc4)nn3)N1)OC[C@@H](O)c1cc(Cl)sc12 [Compound 236] | 0.05 to 0.5 |  | 100.0
Cc1noc(C)c1Cn1cc([C@@H]2C[C@]3(C[C@H](C)N2)OC[C@@H](O)c2cc(Cl)sc23)nn1 [Compound 237] | 0.05 to 0.5 |  | 
C[C@H]1C[C@@]2(C[C@@H](c3cn(Cc4ccc(S(C)(=O)=O)cc4)nn3)N1)OC[C@@H](O)c1cc(Cl)sc12 [Compound 238] | 0.05 to 0.5 |  | 100

SMILES | IC90 [µM] | Emax [%] | Multi-Tox Assay Max Activity (%)
C[C@H]1C[C@@]2(C[C@@H](c3cn(CC(=O)N4CCCCC4)nn3)N1)OC[C@@H](O)c1cc(Cl)sc12 [Compound 239] | 0.05 to 0.5 |  | 97.0
C[C@H]1C[C@@]2(C[C@@H](c3cn(CC4(CO)CCOCC4)nn3)N1)OC[C@@H](O)c1cc(Cl)sc12 [Compound 240] | > 0.5 |  | 95.0
C[C@H]1C[C@@]2(C[C@@H](c3cn(CC4(CO)CC4)nn3)N1)OC[C@@H](O)c1cc(Cl)sc12 [Compound 242] | 0.05 to 0.5 |  | 97.0
C[C@H]1C[C@@]2(C[C@@H](c3cn(Cc4cnc5cnccn45)nn3)N1)OC[C@@H](O)c1cc(Cl)sc12 [Compound 243] | 0.05 to 0.5 |  | 98.0
C[C@H]1C[C@@]2(C[C@@H](c3cn(CCO)nn3)N1)OC[C@@H](O)c1cc(Cl)sc12 [Compound 244] | 0.05 to 0.5 |  | 100.0
COc1ccc(Cn2cc([C@@H]3C[C@]4(C[C@H](C)N3)OC[C@@H](O)c3cc(Cl)sc34)nn2)cc1F [Compound 245] | 0.05 to 0.5 |  | 
C[C@H]1C[C@@]2(C[C@@H](c3cn(C[C@@H](O)CO)nn3)N1)OC[C@@H](O)c1cc(Cl)sc12 [Compound 246] | 0.05 to 0.5 |  | 97.0
C[C@H]1C[C@@]2(C[C@@H](c3cn(CC(C)(C)O)nn3)N1)OC[C@@H](O)c1cc(Cl)sc12 [Compound 247] | > 0.5 |  | 91.0
C[C@H]1C[C@@]2(C[C@@H](c3cn(Cc4cncs4)nn3)N1)OC[C@@H](O)c1cc(Cl)sc12 [Compound 248] | 0.05 to 0.5 |  | 101.0
C[C@H]1C[C@@]2(C[C@@H](c3cn(Cc4ccc5nc(O)[nH]c5c4)nn3)N1)OC[C@@H](O)c1cc(Cl)sc12 [Compound 249] | > 0.5 |  | 92.0
C[C@H]1C[C@@]2(C[C@@H](c3cn(CC4CCC4)nn3)N1)OC[C@@H](O)c1cc(Cl)sc12 [Compound 250] | 0.05 to 0.5 |  | 95.0
Cc1nccn1CCCn1cc([C@@H]2C[C@]3(C[C@H](C)N2)OC[C@@H](O)c2cc(Cl)sc23)nn1 [Compound 251] | 0.05 to 0.5 |  | 
C[C@H]1C[C@@]2(C[C@@H](c3cn(CCC(C)(C)O)nn3)N1)OC[C@@H](O)c1cc(Cl)sc12 [Compound 252] | 0.05 to 0.5 |  | 100.0
C[C@H]1C[C@@]2(C[C@@H](c3cn(Cc4ccc(C#N)cc4)nn3)N1)OC[C@@H](O)c1cc(Cl)sc12 [Compound 253] | 0.05 to 0.5 |  | 100.0
C[C@H]1C[C@@]2(C[C@@H](c3cn(CC4CCC(=O)NC4)nn3)N1)OC[C@@H](O)c1cc(Cl)sc12 (stereo partly shown) [Compound 254] | > 0.5 |  | 92.0
C[C@H]1C[C@@]2(C[C@@H](c3cn(CC#N)nn3)N1)OC[C@@H](O)c1cc(Cl)sc12 [Compound 255] | 0.05 to 0.5 |  | 100.0
CC(CO)Cn1cc([C@@H]2C[C@]3(C[C@H](C)N2)OC[C@@H](O)c2cc(Cl)sc23)nn1 (stereo partly shown) [Compound 256] | 0.05 to 0.5 |  | 96.0
